Results reported in patent US20070010465A1 (priority 2005, published 2007).

Tests used:
P-gp = target: T1, P-gp (Homo sapiens, UniProt P08183); test: cellular P-gp function, DiOC2 accumulation assay with flow cytometry on circulating NK cells and leukemic blasts; assay type: in vivo, Patients with AML
T1 construct: Pharmacodynamic assessments of cellular P-gp function were conducted using an accumulation assay with DiOC2 and flow cytometry; endogenous in cells; host or cells: circulating NK cells and leukemic blasts from AML patients
T1 sequence (P08183 whole entry): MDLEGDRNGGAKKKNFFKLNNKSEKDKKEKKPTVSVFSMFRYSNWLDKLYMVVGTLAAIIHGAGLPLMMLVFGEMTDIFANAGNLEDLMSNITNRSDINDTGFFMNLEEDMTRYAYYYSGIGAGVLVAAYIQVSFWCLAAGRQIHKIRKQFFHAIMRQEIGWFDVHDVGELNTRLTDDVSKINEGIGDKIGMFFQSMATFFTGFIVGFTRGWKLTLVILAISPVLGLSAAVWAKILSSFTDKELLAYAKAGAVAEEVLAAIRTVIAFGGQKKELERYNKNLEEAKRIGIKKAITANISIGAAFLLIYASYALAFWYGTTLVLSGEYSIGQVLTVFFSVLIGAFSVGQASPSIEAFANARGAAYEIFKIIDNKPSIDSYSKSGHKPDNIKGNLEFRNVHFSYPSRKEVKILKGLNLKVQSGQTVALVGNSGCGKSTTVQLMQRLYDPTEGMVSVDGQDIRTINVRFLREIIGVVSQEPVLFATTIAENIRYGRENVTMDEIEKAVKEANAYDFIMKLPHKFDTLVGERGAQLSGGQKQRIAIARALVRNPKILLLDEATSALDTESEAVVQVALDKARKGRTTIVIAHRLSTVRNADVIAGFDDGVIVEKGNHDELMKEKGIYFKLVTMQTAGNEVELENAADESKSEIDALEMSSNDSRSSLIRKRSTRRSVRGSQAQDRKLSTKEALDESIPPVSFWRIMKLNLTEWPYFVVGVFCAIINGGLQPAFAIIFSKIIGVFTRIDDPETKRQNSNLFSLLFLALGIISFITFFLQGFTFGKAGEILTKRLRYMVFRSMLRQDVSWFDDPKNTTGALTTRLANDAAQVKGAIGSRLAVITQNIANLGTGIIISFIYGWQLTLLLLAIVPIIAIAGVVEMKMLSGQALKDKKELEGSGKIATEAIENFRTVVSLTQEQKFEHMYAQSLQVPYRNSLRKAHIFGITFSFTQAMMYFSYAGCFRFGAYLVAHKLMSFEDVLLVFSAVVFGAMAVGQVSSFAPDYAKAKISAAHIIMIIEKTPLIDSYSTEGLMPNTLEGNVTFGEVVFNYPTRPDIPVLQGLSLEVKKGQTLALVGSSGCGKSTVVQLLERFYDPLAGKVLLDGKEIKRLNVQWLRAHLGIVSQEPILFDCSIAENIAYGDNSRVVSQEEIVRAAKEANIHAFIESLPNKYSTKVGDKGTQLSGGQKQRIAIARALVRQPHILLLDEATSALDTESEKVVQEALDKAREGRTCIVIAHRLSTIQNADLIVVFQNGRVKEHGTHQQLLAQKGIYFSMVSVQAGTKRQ
Procedure: Cytarabine was also administered (100 mg/m^2/day) starting after the first dose of daunorubicin as a continuous intravenous infusion on days 1-7. Blood samples were taken at intervals for pharmacokinetic and pharmacodynamic studies. Pharmacokinetic drug determinations were conducted by HPLC. Pharmacodynamic assessments of cellular P-gp function were conducted using an accumulation assay with DiOC2 and flow cytometry. P-gp function was assessed on circulating natural killer (NK) cells and leukemic blasts. […] Means of 3 patients for each time point are shown.

[1] = several oncolytics, preclinical models; cited from earlier work
[2] = tested on: acute myelogenous leukemia; conditions: valspodar arm, enrollment halted; cited from earlier work

| Compound | time to potent inhibition of P-gp function after start of zosuquidar infusion (P-gp; 700 mg/day continuous intravenous infusion) | duration of inhibition of P-gp functional activity after zosuquidar infusion was halted (P-gp; after 72 hour infusion) | pharmacokinetic (PK) interactions with oncolytics [1] | early mortality [2] |
| --- | --- | --- | --- | --- |
| O[C@@H](COc1cccc2ncccc12)CN1CCN([C@@H]2c3ccccc3[C@@H]3[C@H](c4ccccc42)C3(F)F)CC1 [Zosuquidar] | ≤ 2 h | at least 12 hours | minimal | – |
| C/C=C/C[C@@H](C)C(=O)[C@H]1C(=O)N[C@@H](C(C)C)C(=O)N(C)CC(=O)N(C)[C@@H](CC(C)C)C(=O)N[C@@H](C(C)C)C(=O)N(C)[C@@H](CC(C)C)C(=O)N[C@@H](C)C(=O)N[C@H](C)C(=O)N(C)[C@@H](CC(C)C)C(=O)N(C)[C@@H](CC(C)C)C(=O)N(C)[C@@H](C(C)C)C(=O)N1C [valspodar] | – | – | – | excessive early mortality |
